Measured values taken from patent publication US6254898A, “Nutraceutical composition for protection against solar radiation” (Protective Factors, Inc., priority 2000, dated 2001).

Legend:
[1] = Superoxide scavenging activity in a non-enzymatic superoxide generating system; assay type: biochemical; details: at the dilutions tested
Experimental: (§1) The cytotoxic effects of ultraviolet A irradiation on mammalian cells (e.g., skin fibroblasts) have been attributed largely to photoreactions that generate reactive oxygen species, such as superoxide and hydrogen peroxide. The free radical scavenging activity of the blend and its components was determined in vitro using spectrophotometric assays (Yen, G. C. and Duh, P. D., J. Agric. Food Chem., 42: 629-632, 1994; Facino, R. M., Carini, M., Aldini, G., Berti, F., and Rossoni, G., Planta Med., 65: 614-619, 1999). The superoxide scavenging activity was assessed in a non-enzymatic system. The reduction of the stable free radical DPPH (2,2-diphenyl-1-picrylhydrazyl radical), indicative of the neutralizing action upon the already formed free radicals, also was determined in a cell-free system. […]
(§2) The superoxide scavenging activity was determined in a superoxide generating system containing 20 μM of phenazine methosulfate, 156 μM of β-NADH, 50 mM of phosphate buffer, and the extracts at various levels. The reaction was initiated by adding nitroblue tetrazolium (25 μM) and the reduction was monitored using a spectrophotometer at 556 nm. […] The reduction in absorbence was measured using a spectrophotometer at 515 nm. […] The percent inhibition is expressed as the quenching ratio represented by the following formula: [formula]

[2] = biological target: T1, Trypsin Type III from bovine pancreas (Bos taurus, UniProt P00760); experiment: Trypsin inhibitory activity (BAPNA substrate); assay type: biochemical; details: at the dilutions tested for the blend
T1 construct: purchased Sigma; host or cells: bovine pancreas
T1 sequence (P00760 24-246): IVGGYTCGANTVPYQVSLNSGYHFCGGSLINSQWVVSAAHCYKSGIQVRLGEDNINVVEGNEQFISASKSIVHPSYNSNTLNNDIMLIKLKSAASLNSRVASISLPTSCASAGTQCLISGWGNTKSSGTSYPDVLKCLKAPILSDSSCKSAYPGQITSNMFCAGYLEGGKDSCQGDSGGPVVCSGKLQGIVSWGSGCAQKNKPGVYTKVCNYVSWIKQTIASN
Experimental: Serine protease inhibitory activity was determined in vitro by measuring the trypsin inhibitory activity of the blend and its components. Trypsin inhibitory activity was determined by the spectrophotometric determination of the release of p-nitroaniline from a synthetic substrate N-α-benzoyl-DL-arginine-p-nitroanilide hydrochloride (BAPNA) (Parellada, J. and Guinea, M., J. Nat. Prod., 58: 823-829, 1995; Geiger, R. and Fritz, H., In Methods of Enzymatic Analysis, Bergmeyer, H. V., et al (Eds), Verlag-Chemie, Basel, Switzerland, Vol. V, p. 119-129, 1984).
Trypsin Type III from bovine pancreas, BAPNA, and p-nitroaniline were obtained from Sigma. The inventive blend and its components were supplied in a capsule containing: green tea extract, 250 mg; lutein, 15 mg; Se, 50 mcg; and lipoic acid, 50 mg. The capsule's contents were extracted in ethanol [0.5 g (contents of one capsule) in 5 ml ethanol and the components at concentrations incorporated in the blend in 5 ml ethanol].
Aliquots of the enzyme solution (0.25 ml of a 1060 units/ml solution in 0.05 M Tris buffer, pH 7.8) and the buffer (0.25 ml) with various concentrations of the test extracts and without extracts (reference solution) were pre-incubated at 37° C. for 10 min. Blank samples were prepared by inactivating the enzyme with 0.5 ml of 2 M acetic acid before incubation. The enzymatic reaction was started by adding to the reaction mixture 1.25 ml of the substrate solution (1 mM in 0.05 M Tris buffer, pH 7.8). The mixture was incubated for 10 min and the reaction was stopped by adding 0.5 ml of 2 M acetic acid. The p-nitroaniline released was measured using a spectrophotometer at 410 nm. The results are the means ±SD of triplicate measurements. The inhibitory activity is expressed as the inhibition ratio represented by the following formula: [formula]

[3] = tested on: fibroblast cell line BALB/3T3 clone A31; experiment: UV protecting activity: viability of UVA-irradiated fibroblasts (MTT assay); assay type: cell-based, mouse; details: UVA-irradiated BALB/3T3 cells
Experimental: Exposure of skin to sunlight especially to ultraviolet A (320-380 nm) radiation has been reported to induce photochemical generation of reactive oxygen species, resulting in membrane lipid peroxidation, photodamage to DNA, and inactivation of fibroblasts. […] A mammalian fibroblast cell line was used to determine the UV-protective action of the blend and the components at a cellular level.
Dulbecco's Modified Eagle Medium (DMEM) with 4 mM L-glutamine and 110 mg/l sodium pyruvate, Dulbecco's phosphate buffered saline (DPBS) without calcium or magnesium, fetal bovine serum, trypsin-EDTA solution, 2-thiobarbituric acid, MTT, and trichloroacetic acid were obtained from Sigma. […] The capsule's contents were extracted in ethanol [0.5 g (contents of one capsule) in 5 ml ethanol and the components at concentrations incorporated in the blend in 5 ml ethanol]. The extracts were diluted using the culture medium or DPBS.
Cells were maintained in 250 ml Corning flasks having a 0.2 μ vented cap in 10 ml of DMEM supplemented with 10% fetal bovine serum. The cultures were incubated at 37° C. in a CO2 incubator with 90% air and 10% CO2. The cells were subcultured every 5 days.
Assays were performed in 35 mm Costar tissue culture plates. The cells were plated at a density of 90,000 cells per well in the growth medium and allowed to attach and grow for 48 hr. The medium was changed after 36 hr with fresh medium containing the extracts at different concentrations. After 12 hr of incubation with the test extracts, the cells were washed with DPBS to remove the original medium. One ml of DPBS with or without the test extracts was added to each dish. The cells were incubated for 1 hr before exposure to UV irradiation. Non-irradiated cells were used as the control. […] Biophys. […] The results are the means ±SD of triplicate measurements.

[4] = DPPH radical reduction (cell-free spectrophotometric assay); assay type: biochemical; details: at the dilutions tested
Experimental: as §1, §2

Row | trypsin: activity of the components [2] | Structure (SMILES) | superoxide: activity among the four components [1] | UV protection: activity of the components [3] | range of concentrations at which the component was active in the UV protection assay [3] [mg/mL] | DPPH: activity among the four components [4]
1 | active | O=C(O)CCCCC1CCSS1 (stereo not shown) [lipoic acid, 6,8-thioctic acid] | most active | active | 0.001 to 1 | 
2 | active | CC1=C[C@H](O)CC(C)(C)[C@H]1/C=C/C(C)=C/C=C/C(C)=C/C=C/C=C(C)/C=C/C=C(C)/C=C/C1=C(C)C[C@@H](O)CC1(C)C [lutein] |  | active |  | most active

Row | Structure (SMILES) | trypsin: activity of the components [2] | superoxide: activity among the four components [1] | UV protection: activity of the components [3] | range of concentrations at which the component was active in the UV protection assay [3] [mg/mL] | DPPH: activity among the four components [4]
3 | C[Se]CC[C@H](N)C(=O)O [selenium, selenomethionine] | active |  | active | 1e-06 to 0.001 | 
